Test results taken from US10869864B2, “Combinations for the treatment of cancer” (IGNYTA, INC., priority 2015, dated 2020).

What was measured:
[1] = system: KM-12 TPM3-NTRK1 G595R cells; experiment: Tumor growth in athymic nu/nu mice implanted subcutaneously with KM-12 TPM3-NTRK1 G595R cells; assay type: in vivo; settings: for Average tumor volume / Percent tumor growth inhibition (% TGI): entrectinib 60 mg/kg, trametinib 1 mg/kg, p.o. q.d.
Procedure: Athymic nu/nu mice, 6-7 weeks old, female mice were implanted subcutaneously (right flank) with 2 million KM-12 TPM3-NTRK1 G595R cells/mouse. Animals were randomized once the mean tumor volume reached ˜150 mm^3.
Trametinib in vivo oral dosing solution was made by dissolving trametinib in a solution of DMSO (Lot #: SHBG1596V, D8418-100ML, Sigma), PEG 400 (Lot #: MKBX3961V, 202398-500G, Sigma), Tween 80 (Lot #: MKB58228V, P4780-100ML, Sigma) and water. The final concentration of trametinib was 0.1 mg/mL and the amounts of each component in the resulting solution were 3.3% DMSO, 16.7% PEG 400, 15% Tween 80 and 65% water, with the water being added just prior to dosing.
Athymic nu/nu female mice between 6-7 weeks of age were ordered from Charles River. Animals were allowed to acclimate 3 days prior to the start of the study (e.g., cell implantation). Animals were housed in irradiated, individual HEPA ventilated cages (Innocage® IVC, Innovive USA) on a 12-hour light-dark cycle at 68-79° F. and 30-70% humidity. Animals were provided with irradiated chow (Teklad 2920X) and acidified drinking water (Innovive) ad libitum as per the animal care and use protocol established at Explora Biolabs (Ignyta ACUP # EB15-050). Animals were identified by uniquely numbered ear-tags.
(§1) KM12 cells were cultured, harvested, and suspended in 1:1 FBS free culture media:martigel at a concentration of 10 million cells/mL. Cells were implanted under the skin on the right flank of each mouse on day 0. The implantation volume was 200 μL/mouse. Tumors grew until the mean tumor volume reached approximately 130 mm^3. On day 8 mice were randomized into 6 treatment groups (10 mice/group) and treatment began. […] The final treatment for all groups was administered on day 17, for a total of 10 doses. The final tumor and body weight measurements were taken on the final day of dosing, day 17.
(§2) Tumors measurements and body weights were collected 2×/week over the duration of the study. Tumor growth was assessed by caliper and tumor volumes were calculated using the equation (1). Animals with tumor volumes >2,000 mm^3 were removed from study. Volume (mm^3)=[length (mm)×width (mm)×width (mm)]/2 (1)
The percentage of tumor growth inhibition (% TGI) was calculated for each treatment group at each tumor measurement. The % TGI values were calculated using equation (2) below, where TVvehicle is the tumor volume for the vehicle-treated animals at a specified time point, TVinitial is the initial tumor volume at the start of the treatment and TVtreatment is the tumor volume of the treatment group at a specified end-point time. Differences in tumor volumes were assessed by ANOVA using GraphPad Prism (version 6.07, GraphPad Software, Inc.). % TGI=[(TVvehicle−TVtreatment)/(TVvehicle−TVinitial)]×100

[2] = Tolerability, body weight and toxicity in the KM-12 TPM3-NTRK1 G595R mouse study; settings: any animals receiving trametinib 1 mg/kg p.o. q.d.
Procedure: as §1, §2

[3] = day 8 after cell implantation (randomization, treatment began)
[4] = day 8 after cell implantation (treatment began)
[5] = day 17 after cell implantation (10 doses)
[6] = day 17 after cell implantation (final day, 10 doses)

SMILES | Average tumor volume [1, 3] | Percent tumor growth inhibition (% TGI) [1, 4] | Average tumor volume ([1]; day 11 after cell implantation) | Percent tumor growth inhibition (% TGI) ([1]; day 11 after cell implantation) | Average tumor volume ([1]; day 14 after cell implantation) | Percent tumor growth inhibition (% TGI) ([1]; day 14 after cell implantation) | Percent tumor growth inhibition (% TGI) [1, 5] | Average tumor volume [1, 6] | tumor volume difference from vehicle, two-way ANOVA ([1]; by day 14, p<0.05) | tumor volume difference from vehicle, one-way ANOVA ([1]; days 14 and 17) | Toxicity (evaluated based on body weight loss) [2]
CN1CCN(c2ccc(C(=O)Nc3n[nH]c4ccc(Cc5cc(F)cc(F)c5)cc34)c(NC3CCOCC3)c2)CC1 [Entrectinib, N-[5-(3,5-difluorobenzyl)-1H-indazol-3-yl]-4-(4-methyl-piperazin-1-yl)-2-(tetrahydro-pyran-4-ylamino)-benzamide] | 148.2 mm^3 | 100.0% | 403.2 mm^3 | −15.1% | 934.5 mm^3 | −4.5% | −11.6% | 2057.8 mm^3 |  |  | 
CC(=O)Nc1cccc(-n2c(=O)n(C3CC3)c(=O)c3c(Nc4ccc(I)cc4F)n(C)c(=O)c(C)c32)c1 [Trametinib] | 146.7 mm^3 | 100.0% | 254.8 mm^3 | 51.5% | 373.1 mm^3 | 70.0% | 76.7% | 544.9 mm^3 | significantly different from vehicle | Differences were found | Toxicity was observed
